Test results from EP4778920A1, “INDAZOLONE COMPOUND, PREPARATION METHOD THEREFOR, PHARMACEUTICAL COMPOSITION, AND USE” (Shanghai Institute of Materia Medica, Chinese Academy of …, priority 2023, dated 2025).

Key:
MV-4-11 cells = experiment: MV-4-11 cell proliferation inhibition (MTS assay); type: cell-based; settings: Homo sapiens, MV4-11, 168 h, 7 days incubation, MTS, read-out: MV-411 (IC50, Inhibitory Activity of Compounds on MV-4-11 Cell Proliferation)
Method: MV-4-11 cells were cultured in IMDM medium supplemented with 10% fetal bovine serum and collected. The cell concentration was diluted according to a 7-day incubation period, and 180 µL of cell suspension was added to each well of a 96-well plate, resulting in 2,000 cells per well. […] The test compounds were prepared from a 10 mM stock solution and serially diluted in a five-fold gradient, and 20 µL of the diluted compound solution was added to each compound-treated well (final DMSO concentration 0.2%). The cells were incubated in a 37 °C, 5% CO2 incubator for 7 days. After incubation, the reaction solution was prepared according to the MTS assay kit instructions (Promega, G5430), and 20 µL was added to each well. The plate was further incubated at 37 °C with 5% CO2 for 3-4 hours. The absorbance at 490 nm was measured using a microplate reader, and the absorbance at 690 nm was used as the background value. The final raw data were calculated as OD490 - OD690. […] The IC50 values for cell proliferation inhibition were determined using GraphPad Prism 5.0. Each experiment was repeated three times, and three parallel replicates were performed in each experiment to calculate the mean value and standard deviation.
Table 3. Inhibitory Activity of Compounds on MV-4-11 Cell Proliferation

MM.1S cells = experiment: MM.1S cell proliferation inhibition (MTS assay); type: cell-based; settings: Homo sapiens, MM1.S, 168 h, 7 days incubation, read-out: MM1.S (IC50, Inhibitory Activity of Compounds on MM.1S Cell Proliferation)
Method: The cell concentration was diluted according to a 7-day incubation period, and 180 µL of cell suspension was added to each well of a 96-well plate, with 20,000 cells per well. […] The test compounds were prepared from a 10 mM stock solution and serially diluted in a 5-fold gradient, and 20 µL of the diluted solution was added to each compound-treated well (final DMSO concentration also 0.2%). The cells were incubated in a 37 °C, 5% CO2 incubator for 7 days. After incubation, the reaction solution was prepared according to the MTS assay kit instructions (Promega, G5430), and 20 µL was added to each well. The plate was incubated at 37 °C with 5% CO2 for 3-4 hours. The absorbance at 490 nm was measured using a microplate reader, and the absorbance at 690 nm was used as the background value. […] The IC50 values for cell proliferation inhibition were determined using GraphPad Prism 5.0. Each experiment was repeated three times, and three parallel replicates were performed in each experiment to calculate the mean value and standard deviation.
Inhibitory Activity of Compounds on MM.1S Cell Proliferation

Mino cells = experiment: Mino cell proliferation inhibition (MTS assay); type: cell-based; settings: Homo sapiens, 72 h, 3 days incubation, read-out: Mino (IC50, Inhibitory Activity of Compounds on Mino Cell Proliferation)
Method: The cell concentration was diluted according to a 3-day incubation period, and 90 µL of cell suspension was added to each well of a 96-well plate, resulting in 8,000 cells per well. […] The test compounds were prepared from a 10 mM stock solution and serially diluted in a five-fold gradient. Similarly, 10 µL of the diluted compound solution was added to each compound-treated well (final DMSO concentration 0.2%).
The cells were incubated in a 37 °C, 5% CO2 incubator for 3 days. After incubation, the reaction solution was prepared according to the MTS assay kit instructions (Promega, G5430), and 20 µL was added to each well. The plate was further incubated at 37 °C with 5% CO2 for 3-4 hours. The absorbance at 490 nm was measured using a microplate reader, and the absorbance at 690 nm was used as the background value. The final raw data were calculated as OD490 - OD690. […] The IC50 values for cell proliferation inhibition were determined using GraphPad Prism 5.0. Each experiment was repeated three times, and three parallel replicates were performed in each experiment to calculate the mean value and standard deviation.
Table 2. Inhibitory Activity of Compounds on Mino Cell Proliferation

CRBN/DDB1 = CRBN/DDB1 (Homo sapiens, UniProt Q96SW2); experiment: CRBN/DDB1 binding TR-FRET assay; settings: read-out: AVE_Inhibition% (1 µM)
Method: • 1. 0.1 µL of the reference solution was added to a 384-well assay plate. The final detection concentration was 100 µM, followed by 3-fold serial dilution for 10 points. • 2. 2.5 µL of CRBN/DDB1 was added to the 384-well plate and centrifuged at 1000 rpm for 1 minute. • 3. 2.5 µL of Thalidomide-BODIPY was added to the plate, centrifuged at 1000 rpm for 1 minute, and incubated at 25 °C for 15 minutes. • 4. 5 µL of His-Tb was added to the plate, centrifuged at 1000 rpm for 1 minute, and incubated at 25 °C for 60 minutes. • 5. The TR-FRET signal was measured using a BMG plate reader with a fluorescence ratio of 520/490 nm.
Table 4. Inhibition Rate of Compounds on CRBN/DDB1 Binding

CRBN/DDB1, sequence (Q96SW2 whole entry, species assumed): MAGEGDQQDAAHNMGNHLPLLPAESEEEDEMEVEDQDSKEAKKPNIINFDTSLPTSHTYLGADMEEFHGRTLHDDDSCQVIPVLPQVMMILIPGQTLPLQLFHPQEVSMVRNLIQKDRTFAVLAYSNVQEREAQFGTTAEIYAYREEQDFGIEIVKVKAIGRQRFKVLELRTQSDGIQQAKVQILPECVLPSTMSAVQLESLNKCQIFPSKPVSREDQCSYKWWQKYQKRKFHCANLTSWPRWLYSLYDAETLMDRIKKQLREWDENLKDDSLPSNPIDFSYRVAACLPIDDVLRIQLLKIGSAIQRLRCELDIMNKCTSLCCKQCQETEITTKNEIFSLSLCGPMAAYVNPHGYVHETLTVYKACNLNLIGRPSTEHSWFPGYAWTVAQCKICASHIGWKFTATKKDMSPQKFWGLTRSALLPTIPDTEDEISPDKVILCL
CRBN/DDB1, sequence (Q16531 whole entry partner, species assumed): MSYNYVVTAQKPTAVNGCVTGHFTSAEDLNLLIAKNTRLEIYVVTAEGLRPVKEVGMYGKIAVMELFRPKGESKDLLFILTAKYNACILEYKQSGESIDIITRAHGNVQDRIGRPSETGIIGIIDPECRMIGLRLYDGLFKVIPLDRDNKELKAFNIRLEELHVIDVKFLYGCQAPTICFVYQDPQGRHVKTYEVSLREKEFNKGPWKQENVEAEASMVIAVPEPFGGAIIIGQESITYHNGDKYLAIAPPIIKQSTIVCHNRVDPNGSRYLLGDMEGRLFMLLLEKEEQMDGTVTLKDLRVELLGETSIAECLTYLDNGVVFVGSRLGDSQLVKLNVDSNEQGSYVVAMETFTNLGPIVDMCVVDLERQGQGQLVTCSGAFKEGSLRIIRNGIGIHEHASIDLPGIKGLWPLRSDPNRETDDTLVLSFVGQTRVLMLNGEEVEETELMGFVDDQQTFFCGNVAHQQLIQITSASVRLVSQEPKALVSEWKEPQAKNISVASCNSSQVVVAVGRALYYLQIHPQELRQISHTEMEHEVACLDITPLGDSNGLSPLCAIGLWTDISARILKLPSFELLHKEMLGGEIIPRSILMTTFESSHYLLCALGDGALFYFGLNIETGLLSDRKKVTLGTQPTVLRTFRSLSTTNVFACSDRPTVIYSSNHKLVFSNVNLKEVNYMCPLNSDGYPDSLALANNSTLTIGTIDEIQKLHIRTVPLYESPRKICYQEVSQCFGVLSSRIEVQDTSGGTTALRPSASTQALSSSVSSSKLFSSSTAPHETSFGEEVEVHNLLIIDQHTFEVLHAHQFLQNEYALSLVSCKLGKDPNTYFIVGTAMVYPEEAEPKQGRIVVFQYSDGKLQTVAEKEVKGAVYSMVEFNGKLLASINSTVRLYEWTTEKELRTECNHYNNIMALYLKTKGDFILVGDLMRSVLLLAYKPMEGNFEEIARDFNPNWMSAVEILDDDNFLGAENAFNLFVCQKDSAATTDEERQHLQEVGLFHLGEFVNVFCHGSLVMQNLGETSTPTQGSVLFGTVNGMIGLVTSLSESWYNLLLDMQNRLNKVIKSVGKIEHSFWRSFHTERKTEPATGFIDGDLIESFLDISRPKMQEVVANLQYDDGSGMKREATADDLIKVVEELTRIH

O=C1CC[C@H](n2[nH]c3c(OCc4ccc(CN5CCOCC5)cc4)cccc3c2=O)C(=O)N1 [Compound D1, (S)-3-(7-((4-(Morpholinomethyl)benzyl)oxy)-3-oxo-1,3-dihydro-2H-indazol-2-yl)piperidine-2,6-dione]
IC50 (MV-4-11 cells): > 20000 nM
IC50 (MM.1S cells): < 200 nM
IC50 (Mino cells): 1000 to 10000 nM
inhibition at 1 µM (CRBN/DDB1): 50 to 90%

N#Cc1ccc(N2CCN(Cc3ccc(COc4cccc5c(=O)n([C@H]6CCC(=O)NC6=O)[nH]c45)cc3)CC2)c(F)c1 [Compound D2, (S)-4-(4-(4-(((2-(2,6-dioxopiperidin-3-yl)-3-oxo-2,3-dihydro-1H-indazol-7-yl)oxy)methyl)benzyl)piperazin-1-yl)-3-fluorobenzonitrile]
IC50 (MV-4-11 cells): < 200 nM
IC50 (MM.1S cells): < 200 nM
IC50 (Mino cells): < 200 nM
inhibition at 1 µM (CRBN/DDB1): > 90%

N#Cc1ccc(N2CCN(C(=O)c3ccc(COc4cccc5c(=O)n(C6CCC(=O)NC6=O)[nH]c45)cc3)CC2)c(F)c1 (stereo not drawn) [Compound D4]
IC50 (MV-4-11 cells): 1000 to 20000 nM
IC50 (MM.1S cells): < 200 nM
IC50 (Mino cells): < 200 nM
inhibition at 1 µM (CRBN/DDB1): > 90%

Cc1ccc(N2CCN(C(=O)c3ccc(COc4cccc5c(=O)n(C6CCC(=O)NC6=O)[nH]c45)cc3)CC2)c(F)c1 (stereo not drawn) [Compound D5, 3-(7-((4-(4-(2-Fluoro-4-methylphenyl)piperazine-1-carbonyl)benzyl)oxy)-3-oxo-1,3-dihydro-2H-indazol-2-yl)piperidine-2,6-dione]
IC50 (MV-4-11 cells): 1000 to 20000 nM
IC50 (MM.1S cells): < 200 nM
IC50 (Mino cells): < 200 nM
inhibition at 1 µM (CRBN/DDB1): 50 to 90%

O=C1CCC(n2[nH]c3c(OCc4ccc(CN5CCN(c6ccc(F)cc6F)CC5)cc4)cccc3c2=O)C(=O)N1 (stereo not drawn) [Compound D7, 3-(7-((4-((4-(2,4-difluorophenyl)piperazin-1-yl)methyl)benzyl)oxy)-3-oxo-1,3-dihydro-2H-indazol-2-yl)piperidine-2,6-dione]
IC50 (MV-4-11 cells): < 200 nM
IC50 (MM.1S cells): < 200 nM
IC50 (Mino cells): < 200 nM
inhibition at 1 µM (CRBN/DDB1): > 90%

O=C1CCC(n2[nH]c3c(OCc4ccc(CN5CCN(c6cccc(Cl)c6)CC5)cc4)cccc3c2=O)C(=O)N1 (stereo not drawn) [Compound D8, 3-(7-((4-((4-(3-chlorophenyl)piperazin-1-yl)methyl)benzyl)oxy)-3-oxo-1,3-dihydro-2H-indazol-2-yl)piperidine-2,6-dione]
IC50 (MV-4-11 cells): < 200 nM
IC50 (MM.1S cells): < 200 nM
IC50 (Mino cells): < 200 nM
inhibition at 1 µM (CRBN/DDB1): > 90%

O=C1CCC(n2[nH]c3c(OCc4ccc(CN5CCN(c6ccc(Cl)cc6)CC5)cc4)cccc3c2=O)C(=O)N1 (stereo not drawn) [Compound D9, 3-(7-((4-((4-(4-chlorophenyl)piperazin-1-yl)methyl)benzyl)oxy)-3-oxo-1,3-dihydro-2H-indazol-2-yl)piperidine-2,6-dione]
IC50 (MV-4-11 cells): < 200 nM
IC50 (MM.1S cells): < 200 nM
IC50 (Mino cells): < 200 nM
inhibition at 1 µM (CRBN/DDB1): > 90%

O=C1CCC(n2[nH]c3c(OCc4ccc(CN5CCN(c6ccc(F)cc6)CC5)cc4)cccc3c2=O)C(=O)N1 (stereo not drawn) [Compound D10, 3-(7-((4-((4-(4-fluorophenyl)piperazin-1-yl)methyl)benzyl)oxy)-3-oxo-1,3-dihydro-2H-indazol-2-yl)piperidine-2,6-dione]
IC50 (MV-4-11 cells): < 200 nM
IC50 (MM.1S cells): < 200 nM
IC50 (Mino cells): < 200 nM
inhibition at 1 µM (CRBN/DDB1): > 90%

N#Cc1ccc(N2CCN(Cc3ccc(COc4cc(F)cc5c(=O)n(C6CCC(=O)NC6=O)[nH]c45)cc3)CC2)c(F)c1 (stereo not drawn) [Compound D14, 4-(4-(4-(((2-(2,6-dioxopiperidin-3-yl)-5-fluoro-3-oxo-2,3-dihydro-1H-indazol-7-yl)oxy)methyl)benzyl)piperazin-1-yl)-3-fluorobenzonitrile]
IC50 (MV-4-11 cells): < 200 nM
IC50 (MM.1S cells): < 200 nM
IC50 (Mino cells): < 200 nM
inhibition at 1 µM (CRBN/DDB1): > 90%

O=C1CCC(n2[nH]c3c(OCc4ccc(CN5CCN(c6ccc(F)cc6F)CC5)cc4)cc(F)cc3c2=O)C(=O)N1 (stereo not drawn) [Compound D15, 3-(7-((4-((4-(2,4-difluorophenyl)piperazin-1-yl)methyl)benzyl)oxy)-5-fluoro-3-oxo-1,3-dihydro-2H-indazol-2-yl)piperidine-2,6-dione]
IC50 (MV-4-11 cells): < 200 nM
IC50 (MM.1S cells): < 200 nM
IC50 (Mino cells): < 200 nM
inhibition at 1 µM (CRBN/DDB1): 50 to 90%

O=C1CCC(n2[nH]c3c(OCc4ccc(CN5CCN(c6ccc(Cl)cc6)CC5)cc4)cc(F)cc3c2=O)C(=O)N1 (stereo not drawn) [Compound D18, 3-(7-((4-((4-(4-chlorophenyl)piperazin-1-yl)methyl)benzyl)oxy)-5-fluoro-3-oxo-1,3-dihydro-2H-indazol-2-yl)piperidine-2,6-dione]
IC50 (MV-4-11 cells): < 200 nM
IC50 (MM.1S cells): < 200 nM
IC50 (Mino cells): < 200 nM
inhibition at 1 µM (CRBN/DDB1): > 90%

O=C1CCC(n2[nH]c3c(OCc4ccc(CN5CCN(c6ccc(F)cc6)CC5)cc4)cc(F)cc3c2=O)C(=O)N1 (stereo not drawn) [Compound D19, 3-(5-Fluoro-7-((4-((4-(4-fluorophenyl)piperazin-1-yl)methyl)benzyl)oxy)-3-oxo-1,3-dihydro-2H-indazol-2-yl)piperidine-2,6-dione]
IC50 (MV-4-11 cells): < 200 nM
IC50 (MM.1S cells): < 200 nM
IC50 (Mino cells): < 200 nM
inhibition at 1 µM (CRBN/DDB1): > 90%

Cc1ccc(CNC(=O)c2ccc3c(=O)n(C4CCC(=O)NC4=O)[nH]c3c2)cc1 (stereo not drawn) [Compound D36, 2-(2,6-dioxopiperidin-3-yl)-N-(4-methylbenzyl)-3-oxo-2,3-dihydro-1H-indazole-6-carboxamide]
IC50 (MV-4-11 cells): > 20000 nM
IC50 (MM.1S cells): > 10000 nM
IC50 (Mino cells): > 10000 nM

O=C1CCC(n2[nH]c3cc(C(=O)N[C@H](c4ccccc4)C(F)(F)F)ccc3c2=O)C(=O)N1 (stereo partly drawn) [Compound D37, 2-(2,6-dioxopiperidin-3-yl)-3-oxo-N-((R)-2,2,2-trifluoro-1-phenylethyl)-2,3-dihydro-1H-indazole-6-carboxamide]
IC50 (MV-4-11 cells): > 20000 nM
IC50 (MM.1S cells): > 10000 nM
IC50 (Mino cells): > 10000 nM

C[C@H](NC(=O)c1ccc2c(=O)n(C3CCC(=O)NC3=O)[nH]c2c1)c1ccc(F)cc1F (stereo partly drawn) [Compound D38, N-((S)-1-(2,4-difluorophenyl)ethyl)-2-(2,6-dioxopiperidin-3-yl)-3-oxo-2,3-dihydro-1H-indazole-6-carboxamide]
IC50 (MV-4-11 cells): > 20000 nM
IC50 (MM.1S cells): > 10000 nM
IC50 (Mino cells): > 10000 nM

C[C@H](NC(=O)c1ccc2c(=O)n(C3CCC(=O)NC3=O)[nH]c2c1)c1cccc(Cl)c1 (stereo partly drawn) [Compound D39, N-((S)-1-(3-chlorophenyl)ethyl)-2-(2,6-dioxopiperidin-3-yl)-3-oxo-2,3-dihydro-1H-indazole-6-carboxamide]
IC50 (MV-4-11 cells): > 20000 nM
IC50 (MM.1S cells): > 10000 nM
IC50 (Mino cells): > 10000 nM

O=C1CCC(n2[nH]c3cc(C(=O)N[C@@H]4CCOc5ccc(Cl)cc54)ccc3c2=O)C(=O)N1 (stereo partly drawn) [Compound D41, N-((R)-6-chlorochroman-4-yl)-2-(2,6-dioxopiperidin-3-yl)-3-oxo-2,3-dihydro-1H-indazole-6-carboxamide]
IC50 (MV-4-11 cells): > 20000 nM
IC50 (MM.1S cells): > 10000 nM
IC50 (Mino cells): > 10000 nM

Cc1cccc2c1OCC[C@H]2NC(=O)c1ccc2c(=O)n(C3CCC(=O)NC3=O)[nH]c2c1 (stereo partly drawn) [Compound D42, 2-(2,6-dioxopiperidin-3-yl)-N-((R)-8-methylchroman-4-yl)-3-oxo-2,3-dihydro-1H-indazole-6-carboxamide]
IC50 (MV-4-11 cells): > 20000 nM
IC50 (MM.1S cells): > 10000 nM
IC50 (Mino cells): > 10000 nM
